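Step 1: Grow cells in 96-well plates. Step 2: Expose to compound for 48 hours at 5 concentrations. Step 3: Interpolate endpoints linearly; if unreached, use highest concentration. Abbreviation: GI50, concentration required for 50% inhibition of growth. Definition used: TGI = concentration required for complete inhibition of growth.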
Experiments:
Experiment in all cases: inhibition of tumour cell growth, NCI panel, 48 h
MOLT-4 leukemia = tested on: MOLT-4 leukemia
TK-10 renal = tested on: TK-10 renal
SNB-75 CNS = tested on: SNB-75 CNS
HOP-92 NSCLC = tested on: HOP-92 NSCLC
SNB-19 CNS = tested on: SNB-19 CNS
ACHN renal = tested on: ACHN renal
A498 renal = tested on: A498 renal
SF-539 CNS = tested on: SF-539 CNS
SF-268 CNS = tested on: SF-268 CNS
SR leukemia = tested on: SR leukemia

| SMILES | TGI (MOLT-4 leukemia) | TGI (TK-10 renal) | TGI (SNB-75 CNS) | TGI (HOP-92 NSCLC) | TGI (SNB-19 CNS) | TGI (ACHN renal) | TGI (A498 renal) | TGI (SF-539 CNS) | TGI (SF-268 CNS) | GI50 (MOLT-4 leukemia) | GI50 (SNB-75 CNS) | GI50 (HOP-92 NSCLC) | GI50 (SNB-19 CNS) | GI50 (ACHN renal) | GI50 (A498 renal) | GI50 (SF-539 CNS) | GI50 (SF-268 CNS) | GI50 (SR leukemia) | TGI (SR leukemia) |
| --- | --- | --- | --- | --- | --- | --- | --- | --- | --- | --- | --- | --- | --- | --- | --- | --- | --- | --- | --- |
| COC(=O)c1c(-c2ccccc2)sc(-c2cccc3ccccc23)c1C(=O)OC | > 100 µM | > 100 µM | > 100 µM | > 100 µM | > 100 µM | > 100 µM | > 100 µM | > 100 µM | > 100 µM | – | – | – | – | – | – | – | – | – | – |
| O=C([CH-]C(=O)C(F)(F)F)c1ccccc1.O=C([CH-]C(=O)C(F)(F)F)c1ccccc1.O=C([CH-]C(=O)C(F)(F)F)c1ccccc1.O=C([CH-]C(=O)C(F)(F)F)c1ccccc1.[Eu+3].c1ccncc1 | 36.2 µM | – | > 100 µM | 45.6 µM | 94.8 µM | > 100 µM | 88.8 µM | 92.8 µM | 59.7 µM | 4.26 µM | 6.71 µM | 9.02 µM | 4.33 µM | 8.71 µM | 18.4 µM | 16 µM | 6.21 µM | 3.86 µM | 19.7 µM |
| Fc1cccc(Cl)c1/C=N\N=C1c2ccccc2-c2ccccc21 | > 100 µM | > 100 µM | – | > 100 µM | > 100 µM | > 100 µM | > 100 µM | > 100 µM | > 100 µM | – | – | – | – | – | – | – | – | – | > 100 µM |
| Cc1cc2c(=O)c3ccccc3[nH]c2c(C(=O)O)c1C | > 100 µM | – | > 100 µM | – | > 100 µM | > 100 µM | > 100 µM | > 100 µM | – | – | – | – | – | – | – | – | – | – | > 100 µM |
| COc1ccc(/C=C2\C(=O)N(C(=O)Cc3ccccc3)N=C2C)cc1OC | > 100 µM | > 100 µM | > 100 µM | – | > 100 µM | > 100 µM | – | > 100 µM | > 100 µM | – | – | – | – | – | – | – | – | – | > 100 µM |
| CCOC(=O)CC1NC(=O)CS1 (stereo unspecified) | > 100 µM | > 100 µM | > 100 µM | > 100 µM | > 100 µM | > 100 µM | > 100 µM | > 100 µM | > 100 µM | – | – | – | – | – | – | – | – | – | – |
| O=c1[nH]c(=O)n(C2OC3COC2C3O)cc1F (stereo unspecified) | > 100 µM | > 100 µM | > 100 µM | > 100 µM | > 100 µM | > 100 µM | – | – | > 100 µM | – | – | – | – | – | – | – | – | – | – |
| Cc1c2cc[n+](C)cc2c(C)c2c1[nH]c1ccc(O)c(OCC(F)(F)F)c12 | 22.1 µM | 29.1 µM | 1.35 µM | 17.4 µM | 5.33 µM | – | 32 µM | 9.72 µM | 1.1 µM | – | – | – | – | – | – | – | – | – | – |
| BrC1(Br)C2/C=C\CCCCC21 (stereo unspecified) | > 100 µM | > 100 µM | – | > 100 µM | > 100 µM | > 100 µM | > 100 µM | > 100 µM | > 100 µM | – | – | – | – | – | – | – | – | – | > 100 µM |
| COC1CC(OC(=O)c2ccccc2)C(OC(=O)c2ccccc2)C(C)O1 (stereo unspecified) | > 100 µM | > 100 µM | – | > 100 µM | > 100 µM | > 100 µM | > 100 µM | > 100 µM | > 100 µM | – | – | – | – | – | – | – | – | – | > 100 µM |
| O=[N+]([O-])c1nccn1COCCBr | > 100 µM | > 100 µM | > 100 µM | > 100 µM | > 100 µM | > 100 µM | – | > 100 µM | > 100 µM | – | – | – | – | – | – | – | – | – | > 100 µM |
| CCN1CSC(=S)N(CC)C1 | > 100 µM | > 100 µM | > 100 µM | > 100 µM | > 100 µM | > 100 µM | > 100 µM | 76 µM | > 100 µM | – | – | – | – | – | – | – | – | – | – |

Reference: PubChem BioAssay (NCI)
